Test [1] deals with human liver cancer cell Hep3B. In words: MTT survival rate of Hep3B cells, VCP inhibitor and/or M1 virus (Example 2). Format: cell-based. As to the method: b) Reaction of MTT (3-(4,5-dimethylthiazol-2-yl)-2,5-diphenyltetrazolium bromide) with succinate dehydrogenase in the cells as follows: 48 hours after culture, 20 μl MTT (5 mg/ml) was added into each well, and was incubated for further 4 hours.
c) Dissolution of formazan particles formed in the cells was accomplished as follows: the supernatant was carefully sucked off, 100 μl/well DMSO was added to dissolve the formed crystals, and was shaken in a microoscillator for 5 minutes. Then, the optical density (OD value) of each well was detected in an enzyme linked detector at a wavelength of 570 nm. The experiments were repeated for 3 times for each group. The survival rate of the cells=OD value of the drug treatment group/OD value of the control group×100%.
Single and double asterisks in FIGS. 2(A) and 2(B) indicate results with one way ANOVA analysis showing a statistical difference with a single asterisk (*) indicating P<0.05 and a double asterisk (**) indicating P<0.01.

The test system of test [2] is human liver cancer cell Hep3B. In words: Morphological observation by phase contrast microscope (Example 1). The conditions noted are these: Eeyarestatin I 5 μM and/or M1 virus MOI=0.001; 48 hours after treatment. Format: cell-based.
Experimental: b) Cell treatment and morphological observation: The cells in exponential growth phase were selected and added into a DMEM complete culture medium (containing 10% fetal bovine serum, 1% penicillin/streptomycin (Life Technologies)) to prepare a cell suspension. The cells were inoculated into a 24-well culture plate at a density of 2.5×10^4/well. Each well was then treated by addition of Eeyarestatin I (5 μM), M1 virus (MOI=0.001) or Eeyarestatin I (5 μM) plus M1 virus (MOI=0.001) or left untreated as a control.
In test [3] the test system is endoplasmic reticulum stress markers (IRE1, XBP1(S), BiP, p-PERK, p-eIF2a, ATF6, poly-ub; caspase-12, CHOP, p-JNK). In words: Western blot of endoplasmic reticulum stress markers and ER stress-associated apoptosis in Hep3B (Example 5). Conditions: Eeyarestatin I 5 μM and/or M1 virus MOI=0.001. Format: cell-based, human. (In western blotting, separated proteins are transferred to a membrane and probed.)
Experimental: The cells in the exponential growth phase were selected and added into a DMEM complete culture medium to prepare a cell suspension. The cells were inoculated into a 60 mm culture dish at a density of 1×10^6. After 12 hours the cells were completely adherent to the wall. […] The dose was used as follows: M1 virus (MOI=0.001) that infected cells; Eeyarestatin I (5 μM).
After the time of drug treatment was set up, the protein samples were collected to carry out the Western blot for detecting the marker of endoplasmic reticulum stress (IRE1 XBP1(S), BiP, p-PERK, p-eIF2a, ATF6, poly-ub); and the activation of the pathway of endoplasmic reticulum stress-associated apoptosis (caspase-12, CHOP, p-JNK).

Where “and” joins values, the source holds several entries; their conditions need not be identical. Equal entries are not always repeated.

For `Cc1cc2c(C(N)=O)cccc2n1-c1nc2c(c(NCc3ccccc3)n1)COCC2` [CB-5083], in test [1] (CB-5083 alone compared to combination with M1 (MOI=0.001), 0.124 to 2 μM, FIG. 2(B)), the relative survival rates entry is “significantly higher relative survival rates”.

With `CC1(C)C(N(O)C(=O)Nc2ccc(Cl)cc2)N(c2ccc(Cl)cc2)C(=O)N1CC(=O)N/N=C/C=C/c1ccc([N+](=O)[O-])o1` (centres unmarked) [Eeyarestatin I], the “reduction in cell number” value in test [1] (5 μM alone) was 12.8%. In addition, the “survival rate of tumor cells” value in test [1] (5 μM alone, 48 hours, MTT) was 87.2% and 78.2%. The “morphology of the cells” value in test [2] is “morphology of the cells was not changed significantly”. For the same molecule, in test [3], the “endoplasmic reticulum stress-associated markers and apoptosis pathway” value is reported as “induce the increase of endoplasmic reticulum stress-associated markers such as IREI, XBPI (S), p-PERK, p-eIF2a”.

Source of the values: patent publication US11234968B2, “Use of VCP inhibitor and oncolytic virus in the preparation of an anti-tumor drug” (priority 2016, dated 2022).
